{"source": "PubChem BioAssay (NCI)", "note": "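1) Cells in 96-well plates. 2) Compound, 48 h, 5 concentrations. 3) Linear interpolation between surrounding doses. 4) Unreached endpoint = highest concentration. Here, GI50 denotes the concentration required for 50% inhibition of growth. TGI is the concentration that stops growth completely.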", "data": [{"test_system": "CCRF-CEM leukemia", "experiment": "DTP human tumour cell line panel, 48 h", "units": {"TGI": "µM", "GI50": "µM"}, "values": [{"smiles": "Nc1n[nH]c(=O)c2c1c(I)cn2C1OC(CO)C(O)C1O", "note": "(centres undefined)", "TGI": 4.12}, {"smiles": "O=C(Nc1ccc([N+](=O)[O-])cc1[N+](=O)[O-])C(=O)C(C(=O)c1ccc2ccccc2c1)C1OC(=O)c2ccccc21", "note": "(centres undefined)", "TGI": 32.4}, {"smiles": "COc1cc(/C=C/C(=O)Oc2ccc(NC(C)=O)cc2)ccc1C(=O)O/C=C/c1ccccc1", "TGI": "> 100"}, {"smiles": "COc1ccc2c(c1)CCCN2CCCCCCCCCCN(CCC(C)C)CCC(C)C", "TGI": 32.9}, {"smiles": "O=P1(c2ccccc2)Nc2ccccc2SSc2ccccc2N1", "TGI": 62.8}, {"smiles": "COc1ccc(-c2nc3ncccn3c2-c2ccc(SC)cc2)cc1", "TGI": "> 100"}, {"smiles": "C[C@H]1C(=O)O[C@@H]2CCN3CC=C(COC(=O)[C@](C)(O)[C@@]1(C)O)[C@H]23", "TGI": "> 100"}, {"smiles": "CN(C)C(=O)/C=C/c1c[nH]c(=O)[nH]c1=O", "TGI": "> 500"}, {"smiles": "CN(C)CCCn1cnc2cc(Cl)c(Cl)cc21", "TGI": "> 100"}, {"smiles": "NCCCn1c2c(c3ccc([N+](=O)[O-])cc3c1=O)C(=O)c1ccccc1-2", "GI50": 0.135, "TGI": "> 50"}, {"smiles": "O=C1NI(C#Cc2ccccc2)c2ccccc21", "TGI": 88.9}, {"smiles": "CCc1nc(N)nc(N)c1-c1ccc([N+](C)(C)C)cc1", "TGI": "> 100"}, {"smiles": "Cc1cc2c(cc1C(=O)c1ccc(N)cc1)OCO2", "TGI": "> 100"}, {"smiles": "NCCc1cc(O)c(O)cc1O", "TGI": 23.6}, {"smiles": "COc1ccc(C2=C3SC=c4ccccc4=C3ON=C2c2ccccc2)cc1", "TGI": "> 100"}, {"smiles": "CC(=O)NNc1nc(-c2ccc([N+](=O)[O-])cc2)c(C#N)c(=O)n1C", "TGI": "> 100"}, {"smiles": "COc1cc(C2CC(c3cccc(Nc4ccncc4)c3)=NN2c2ccc(Cl)cc2)cc(OC)c1OC", "note": "(centres undefined)", "GI50": 2.39, "TGI": 6.71}, {"smiles": "CCCOC(=O)CNC(=O)OC(C)(C)C", "TGI": "> 100"}, {"smiles": "CN(C)CCNC(=O)c1cccc2ccc(-c3ccc(F)cc3)nc12", "TGI": 15.8}]}, {"test_system": "HCC-2998 colon", "experiment": "DTP human tumour cell line panel, 48 h", "units": {"TGI": "µM", "GI50": "µM"}, "values": [{"smiles": "Nc1n[nH]c(=O)c2c1c(I)cn2C1OC(CO)C(O)C1O", "note": "(centres undefined)", "TGI": 7.45}, {"smiles": "O=C(Nc1ccc([N+](=O)[O-])cc1[N+](=O)[O-])C(=O)C(C(=O)c1ccc2ccccc2c1)C1OC(=O)c2ccccc21", "note": "(centres undefined)", "TGI": 25}, {"smiles": "COc1cc(/C=C/C(=O)Oc2ccc(NC(C)=O)cc2)ccc1C(=O)O/C=C/c1ccccc1", "TGI": "> 100"}, {"smiles": "COc1ccc2c(c1)CCCN2CCCCCCCCCCN(CCC(C)C)CCC(C)C", "TGI": 19.2}, {"smiles": "O=P1(c2ccccc2)Nc2ccccc2SSc2ccccc2N1", "TGI": 37.6}, {"smiles": "C[C@H]1C(=O)O[C@@H]2CCN3CC=C(COC(=O)[C@](C)(O)[C@@]1(C)O)[C@H]23", "TGI": "> 100"}, {"smiles": "N=C1C(=N)c2ccccc2-c2ccccc21.N=C1C(=N)c2ccccc2-c2ccccc21.N=C1C(=N)c2ccccc2-c2ccccc21.[Cl-].[Ru+2]", "TGI": "> 31.6"}, {"smiles": "CCOC(=O)c1c2c(n(Cc3ccccc3)c1C)C(=O)C(=O)c1ccccc1-2", "TGI": 1.17}, {"smiles": "CN(C)C(=O)/C=C/c1c[nH]c(=O)[nH]c1=O", "TGI": "> 500"}, {"smiles": "CN(C)CCCn1cnc2cc(Cl)c(Cl)cc21", "TGI": 40.6}, {"smiles": "CCc1nc(N)nc(N)c1-c1ccc([N+](C)(C)C)cc1", "TGI": "> 100"}, {"smiles": "NCCc1cc(O)c(O)cc1O", "TGI": "> 100"}, {"smiles": "COc1ccc(C2=C3SC=c4ccccc4=C3ON=C2c2ccccc2)cc1", "TGI": "> 100"}, {"smiles": "COc1cc(C2CC(c3cccc(Nc4ccncc4)c3)=NN2c2ccc(Cl)cc2)cc(OC)c1OC", "note": "(centres undefined)", "GI50": 1.54, "TGI": 2.91}, {"smiles": "CCCOC(=O)CNC(=O)OC(C)(C)C", "TGI": "> 100"}, {"smiles": "CN(C)CCNC(=O)c1cccc2ccc(-c3ccc(F)cc3)nc12", "TGI": 19.3}]}, {"test_system": "HOP-62 NSCLC", "experiment": "DTP human tumour cell line panel, 48 h", "units": {"TGI": "µM"}, "values": [{"smiles": "Nc1n[nH]c(=O)c2c1c(I)cn2C1OC(CO)C(O)C1O", "note": "(centres undefined)", "TGI": 21.5}, {"smiles": "O=C(Nc1ccc([N+](=O)[O-])cc1[N+](=O)[O-])C(=O)C(C(=O)c1ccc2ccccc2c1)C1OC(=O)c2ccccc21", "note": "(centres undefined)", "TGI": 68.4}, {"smiles": "COc1cc(/C=C/C(=O)Oc2ccc(NC(C)=O)cc2)ccc1C(=O)O/C=C/c1ccccc1", "TGI": "> 100"}, {"smiles": "COc1ccc2c(c1)CCCN2CCCCCCCCCCN(CCC(C)C)CCC(C)C", "TGI": 26.1}, {"smiles": "COc1ccc(-c2nc3ncccn3c2-c2ccc(SC)cc2)cc1", "TGI": 44.3}, {"smiles": "C[C@H]1C(=O)O[C@@H]2CCN3CC=C(COC(=O)[C@](C)(O)[C@@]1(C)O)[C@H]23", "TGI": "> 100"}, {"smiles": "N=C1C(=N)c2ccccc2-c2ccccc21.N=C1C(=N)c2ccccc2-c2ccccc21.N=C1C(=N)c2ccccc2-c2ccccc21.[Cl-].[Ru+2]", "TGI": 8.97}, {"smiles": "CCOC(=O)c1c2c(n(Cc3ccccc3)c1C)C(=O)C(=O)c1ccccc1-2", "TGI": 0.536}, {"smiles": "CN(C)C(=O)/C=C/c1c[nH]c(=O)[nH]c1=O", "TGI": "> 500"}, {"smiles": "CN(C)CCCn1cnc2cc(Cl)c(Cl)cc21", "TGI": "> 100"}, {"smiles": "O=C1NI(C#Cc2ccccc2)c2ccccc21", "TGI": "> 100"}, {"smiles": "CCc1nc(N)nc(N)c1-c1ccc([N+](C)(C)C)cc1", "TGI": "> 100"}, {"smiles": "Cc1cc2c(cc1C(=O)c1ccc(N)cc1)OCO2", "TGI": "> 100"}, {"smiles": "NCCc1cc(O)c(O)cc1O", "TGI": 45}, {"smiles": "COc1ccc(C2=C3SC=c4ccccc4=C3ON=C2c2ccccc2)cc1", "TGI": "> 100"}, {"smiles": "CC(=O)NNc1nc(-c2ccc([N+](=O)[O-])cc2)c(C#N)c(=O)n1C", "TGI": 52.5}, {"smiles": "CCCOC(=O)CNC(=O)OC(C)(C)C", "TGI": "> 100"}, {"smiles": "CN(C)CCNC(=O)c1cccc2ccc(-c3ccc(F)cc3)nc12", "TGI": 27.8}]}, {"test_system": "NCI-H23 lung", "experiment": "DTP human tumour cell line panel, 48 h", "units": {"TGI": "µM", "GI50": "µM"}, "values": [{"smiles": "Nc1n[nH]c(=O)c2c1c(I)cn2C1OC(CO)C(O)C1O", "note": "(centres undefined)", "TGI": 1.96}, {"smiles": "O=C(Nc1ccc([N+](=O)[O-])cc1[N+](=O)[O-])C(=O)C(C(=O)c1ccc2ccccc2c1)C1OC(=O)c2ccccc21", "note": "(centres undefined)", "TGI": 26}, {"smiles": "COc1cc(/C=C/C(=O)Oc2ccc(NC(C)=O)cc2)ccc1C(=O)O/C=C/c1ccccc1", "TGI": "> 100"}, {"smiles": "COc1ccc2c(c1)CCCN2CCCCCCCCCCN(CCC(C)C)CCC(C)C", "TGI": 12.7}, {"smiles": "O=P1(c2ccccc2)Nc2ccccc2SSc2ccccc2N1", "TGI": 32.7}, {"smiles": "COc1ccc(-c2nc3ncccn3c2-c2ccc(SC)cc2)cc1", "TGI": "> 100"}, {"smiles": "C[C@H]1C(=O)O[C@@H]2CCN3CC=C(COC(=O)[C@](C)(O)[C@@]1(C)O)[C@H]23", "TGI": "> 100"}, {"smiles": "N=C1C(=N)c2ccccc2-c2ccccc21.N=C1C(=N)c2ccccc2-c2ccccc21.N=C1C(=N)c2ccccc2-c2ccccc21.[Cl-].[Ru+2]", "TGI": 4.93}, {"smiles": "CCOC(=O)c1c2c(n(Cc3ccccc3)c1C)C(=O)C(=O)c1ccccc1-2", "TGI": 1.07}, {"smiles": "CN(C)C(=O)/C=C/c1c[nH]c(=O)[nH]c1=O", "TGI": "> 500"}, {"smiles": "CN(C)CCCn1cnc2cc(Cl)c(Cl)cc21", "TGI": "> 100"}, {"smiles": "NCCCn1c2c(c3ccc([N+](=O)[O-])cc3c1=O)C(=O)c1ccccc1-2", "GI50": 0.078, "TGI": 2.42}, {"smiles": "O=C1NI(C#Cc2ccccc2)c2ccccc21", "TGI": "> 100"}, {"smiles": "CCc1nc(N)nc(N)c1-c1ccc([N+](C)(C)C)cc1", "TGI": "> 100"}, {"smiles": "Cc1cc2c(cc1C(=O)c1ccc(N)cc1)OCO2", "TGI": "> 100"}, {"smiles": "NCCc1cc(O)c(O)cc1O", "GI50": 24.2, "TGI": "> 69.6"}, {"smiles": "COc1ccc(C2=C3SC=c4ccccc4=C3ON=C2c2ccccc2)cc1", "TGI": "> 100"}, {"smiles": "CC(=O)NNc1nc(-c2ccc([N+](=O)[O-])cc2)c(C#N)c(=O)n1C", "TGI": "> 100"}, {"smiles": "COc1cc(C2CC(c3cccc(Nc4ccncc4)c3)=NN2c2ccc(Cl)cc2)cc(OC)c1OC", "note": "(centres undefined)", "GI50": 1.67, "TGI": 3.28}, {"smiles": "CCCOC(=O)CNC(=O)OC(C)(C)C", "TGI": "> 100"}, {"smiles": "CN(C)CCNC(=O)c1cccc2ccc(-c3ccc(F)cc3)nc12", "TGI": 17.1}]}, {"test_system": "NCI/ADR-RES ovarian", "experiment": "DTP human tumour cell line panel, 48 h", "units": {"TGI": "µM", "GI50": "µM"}, "values": [{"smiles": "COc1cc(/C=C/C(=O)Oc2ccc(NC(C)=O)cc2)ccc1C(=O)O/C=C/c1ccccc1", "TGI": "> 100"}, {"smiles": "O=P1(c2ccccc2)Nc2ccccc2SSc2ccccc2N1", "TGI": 42.3}, {"smiles": "COc1ccc(-c2nc3ncccn3c2-c2ccc(SC)cc2)cc1", "TGI": 5.24}, {"smiles": "C[C@H]1C(=O)O[C@@H]2CCN3CC=C(COC(=O)[C@](C)(O)[C@@]1(C)O)[C@H]23", "TGI": "> 100"}, {"smiles": "CCOC(=O)c1c2c(n(Cc3ccccc3)c1C)C(=O)C(=O)c1ccccc1-2", "TGI": "> 100"}, {"smiles": "CN(C)C(=O)/C=C/c1c[nH]c(=O)[nH]c1=O", "TGI": "> 500"}, {"smiles": "CN(C)CCCn1cnc2cc(Cl)c(Cl)cc21", "TGI": "> 100"}, {"smiles": "NCCCn1c2c(c3ccc([N+](=O)[O-])cc3c1=O)C(=O)c1ccccc1-2", "GI50": 0.427, "TGI": 2.41}, {"smiles": "O=C1NI(C#Cc2ccccc2)c2ccccc21", "TGI": "> 100"}, {"smiles": "CCc1nc(N)nc(N)c1-c1ccc([N+](C)(C)C)cc1", "TGI": "> 100"}, {"smiles": "Cc1cc2c(cc1C(=O)c1ccc(N)cc1)OCO2", "TGI": 87.7}, {"smiles": "NCCc1cc(O)c(O)cc1O", "TGI": "> 86.7"}, {"smiles": "COc1ccc(C2=C3SC=c4ccccc4=C3ON=C2c2ccccc2)cc1", "TGI": "> 100"}, {"smiles": "CC(=O)NNc1nc(-c2ccc([N+](=O)[O-])cc2)c(C#N)c(=O)n1C", "TGI": "> 100"}, {"smiles": "CN(C)CCNC(=O)c1cccc2ccc(-c3ccc(F)cc3)nc12", "TGI": 18.4}]}, {"test_system": "OVCAR-3 ovarian", "experiment": "DTP human tumour cell line panel, 48 h", "units": {"TGI": "µM"}, "values": [{"smiles": "Nc1n[nH]c(=O)c2c1c(I)cn2C1OC(CO)C(O)C1O", "note": "(centres undefined)", "TGI": "> 100"}, {"smiles": "COc1cc(/C=C/C(=O)Oc2ccc(NC(C)=O)cc2)ccc1C(=O)O/C=C/c1ccccc1", "TGI": "> 100"}, {"smiles": "COc1ccc2c(c1)CCCN2CCCCCCCCCCN(CCC(C)C)CCC(C)C", "TGI": 17.3}]}]}
